Reference: paper PMC3752901 (Clinical cancer research : an official journal of the …, 2013)

Tests used:
[1] = system: ABCC4; details: cited from earlier work; for Km: read-out: Michaelis-Menten constant (Km) for ABCC4
[2] = ref 24 (methotrexate), 14 (cefadroxil); cited from earlier work
[3] = target: T1, mouse Abcc4 (Mus musculus, UniProt E9Q236); details: 4 h
T1 sequence (E9Q236 1-1325): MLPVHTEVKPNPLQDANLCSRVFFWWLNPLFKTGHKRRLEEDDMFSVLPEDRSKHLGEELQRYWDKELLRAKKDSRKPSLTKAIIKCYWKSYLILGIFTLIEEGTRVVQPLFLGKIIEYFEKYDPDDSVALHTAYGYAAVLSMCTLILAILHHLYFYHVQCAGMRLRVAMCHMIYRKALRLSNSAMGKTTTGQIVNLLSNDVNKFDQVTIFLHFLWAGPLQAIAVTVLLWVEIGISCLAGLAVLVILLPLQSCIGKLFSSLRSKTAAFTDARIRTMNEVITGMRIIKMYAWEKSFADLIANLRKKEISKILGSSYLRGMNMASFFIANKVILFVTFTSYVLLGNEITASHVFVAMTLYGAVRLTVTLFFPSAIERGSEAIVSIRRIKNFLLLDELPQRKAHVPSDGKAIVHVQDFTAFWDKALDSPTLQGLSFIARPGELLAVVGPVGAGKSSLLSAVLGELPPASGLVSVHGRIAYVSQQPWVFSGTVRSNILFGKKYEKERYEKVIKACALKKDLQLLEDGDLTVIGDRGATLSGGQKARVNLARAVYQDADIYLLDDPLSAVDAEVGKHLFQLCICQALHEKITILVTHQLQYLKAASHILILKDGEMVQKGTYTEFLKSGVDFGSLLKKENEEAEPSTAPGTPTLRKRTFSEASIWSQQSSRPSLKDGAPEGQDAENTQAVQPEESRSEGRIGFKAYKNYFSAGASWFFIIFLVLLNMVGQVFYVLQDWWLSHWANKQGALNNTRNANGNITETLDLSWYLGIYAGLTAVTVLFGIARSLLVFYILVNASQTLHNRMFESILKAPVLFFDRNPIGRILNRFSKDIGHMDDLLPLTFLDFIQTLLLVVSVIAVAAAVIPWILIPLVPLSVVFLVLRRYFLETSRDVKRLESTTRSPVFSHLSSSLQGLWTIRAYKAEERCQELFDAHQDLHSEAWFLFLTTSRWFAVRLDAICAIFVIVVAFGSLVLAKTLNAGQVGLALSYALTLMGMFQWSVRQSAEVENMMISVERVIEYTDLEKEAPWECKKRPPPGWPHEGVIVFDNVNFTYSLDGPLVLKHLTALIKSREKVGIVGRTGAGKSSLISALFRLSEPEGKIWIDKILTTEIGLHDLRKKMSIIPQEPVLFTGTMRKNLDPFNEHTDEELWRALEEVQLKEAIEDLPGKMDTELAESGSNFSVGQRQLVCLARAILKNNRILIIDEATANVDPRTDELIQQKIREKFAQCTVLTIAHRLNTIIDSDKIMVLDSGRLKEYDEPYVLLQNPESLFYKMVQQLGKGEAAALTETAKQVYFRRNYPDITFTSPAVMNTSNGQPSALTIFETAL

[4] = target: T2, human ABCC4 (Homo sapiens, UniProt O15439); test: Uptake into inside-out Sf9 vesicles expressing ABCC4; details: GSH 2mM
T2 sequence (O15439 1-1325): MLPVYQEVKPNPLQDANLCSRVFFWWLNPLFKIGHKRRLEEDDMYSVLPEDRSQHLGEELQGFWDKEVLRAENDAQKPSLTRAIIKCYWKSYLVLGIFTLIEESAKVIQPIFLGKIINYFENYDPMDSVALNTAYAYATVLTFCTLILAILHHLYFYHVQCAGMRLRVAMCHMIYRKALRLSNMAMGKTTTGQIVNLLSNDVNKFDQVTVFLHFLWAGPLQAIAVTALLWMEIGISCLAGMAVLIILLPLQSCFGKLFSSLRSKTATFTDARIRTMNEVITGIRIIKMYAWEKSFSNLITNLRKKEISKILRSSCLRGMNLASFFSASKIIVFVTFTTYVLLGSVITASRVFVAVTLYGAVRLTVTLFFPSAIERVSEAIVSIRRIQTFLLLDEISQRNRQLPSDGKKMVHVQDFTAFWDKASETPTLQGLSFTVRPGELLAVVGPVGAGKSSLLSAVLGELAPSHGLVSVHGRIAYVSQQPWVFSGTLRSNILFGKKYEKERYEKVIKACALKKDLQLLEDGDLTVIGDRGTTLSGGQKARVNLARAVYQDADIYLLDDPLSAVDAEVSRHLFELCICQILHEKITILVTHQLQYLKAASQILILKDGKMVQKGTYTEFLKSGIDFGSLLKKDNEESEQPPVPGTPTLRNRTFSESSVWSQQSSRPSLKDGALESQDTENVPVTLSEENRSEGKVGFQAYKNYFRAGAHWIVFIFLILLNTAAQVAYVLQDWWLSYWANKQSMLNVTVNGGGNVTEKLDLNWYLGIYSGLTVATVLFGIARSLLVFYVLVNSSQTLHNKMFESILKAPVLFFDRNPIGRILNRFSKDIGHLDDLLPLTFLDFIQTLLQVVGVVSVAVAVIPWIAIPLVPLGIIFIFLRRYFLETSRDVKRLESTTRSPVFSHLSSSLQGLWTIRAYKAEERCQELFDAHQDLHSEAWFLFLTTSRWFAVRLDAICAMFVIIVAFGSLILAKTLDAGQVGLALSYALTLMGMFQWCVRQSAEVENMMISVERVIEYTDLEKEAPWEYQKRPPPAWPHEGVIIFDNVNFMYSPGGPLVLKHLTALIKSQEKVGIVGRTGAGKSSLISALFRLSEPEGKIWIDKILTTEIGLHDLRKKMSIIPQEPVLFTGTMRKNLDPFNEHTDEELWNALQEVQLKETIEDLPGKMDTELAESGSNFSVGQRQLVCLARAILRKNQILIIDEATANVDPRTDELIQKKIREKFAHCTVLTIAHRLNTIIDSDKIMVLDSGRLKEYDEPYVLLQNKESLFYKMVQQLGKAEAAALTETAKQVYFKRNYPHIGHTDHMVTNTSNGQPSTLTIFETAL

[5] = Plasma pharmacokinetics in wildtype and Abcc4; details: oral 50 mg/kg, wildtype vs Abcc4(−/−) mice
[6] = target: T1, mouse Abcc4; test: Accumulation/efflux in Saos-2 cells transfected with Abcc4; details: 100 μM, 4-h incubation

SMILES: CN(Cc1cnc2nc(N)nc(N)c2n1)c1ccc(C(=O)N[C@@H](CCC(=O)O)C(=O)O)cc1 [MTX, methotrexate]
- Km [1]: 220 to 1300 µM
- pharmacokinetic profile after oral administration in Abcc4(−/−) mice [2]: unchanged

SMILES: Nc1ncnc2c1ncn2CCOCP(=O)(O)O [adefovir]
- Km [1]: > 1000 µM

SMILES: CC1=C(C(=O)O)N2C(=O)[C@@H](NC(=O)[C@H](N)c3ccc(O)cc3)[C@H]2SC1 [cefadroxil]
- pharmacokinetic profile after oral administration in Abcc4(−/−) mice [2]: unchanged

SMILES: Nc1nc2c(c(=O)[nH]1)N(C=O)C(CNc1ccc(C(=O)N[C@@H](CCC(=O)O)C(=O)O)cc1)CN2 (stereo partly drawn) [leucovorin]
- Km [1]: 640 µM

SMILES: O=C(O)c1ccccc1O [salicylic acid]
- substrate of mouse Abcc4 [3]: substrates of mouse Abcc4

SMILES: CC(=O)Oc1ccccc1C(=O)O [aspirin, acetylsalicylic acid]
- transported substrate of human ABCC4 [1]: transported substrate of human ABCC4
- substrate of mouse Abcc4 [3]: substrates of mouse Abcc4

SMILES: C[C@]12CC[C@@H]3c4ccc(O)cc4CC[C@H]3[C@@H]1CC[C@@H]2O[C@@H]1O[C@H](C(=O)O)[C@@H](O)[C@H](O)[C@H]1O [E2G, Estradiol-17β-D-glucuronide]
- increase of ABCC4-mediated transport by GSH [4]: about 2 fold

SMILES: C[C@H](Cn1cnc2c(N)ncnc21)OCP(=O)(O)O [tenofovir]
- Km [1]: > 1000 µM

SMILES: Cc1ccc(NC(=O)c2ccc(CN3CCN(C)CC3)cc2)cc1Nc1nccc(-c2cccnc2)n1 [imatinib]
- effect of Abcc4-deficiency on the oral pharmacokinetic profile [5]: not substantially affected
- transport by mouse Abcc4 (accumulation in Saos-2 cells overexpressing Abcc4 compared to control cells) [6]: no noticeable efflux transport
